# Test results taken from US9682993B2, “Anticancer compounds” (ST. JUDE CHILDREN'S RESEARCH HOSPITAL, priority 2012, dated 2017).
# Like-named read-outs stand apart in the source and are kept apart here.
# Tests used:
# [1] = test system: JeKo1; test: In vitro cytotoxicity analysis, JeKo1; type: cell-based; conditions: Homo sapiens, JeKo-1
# Excerpt: (§1) The A549 lung cancer, WiDr colorectal cancer, MCF-7 breast cancer, PC-3 prostate cancer, and OVCAR-3 ovarian cancer cell lines were purchased from the American Type Culture Collection (ATCC, Manassas, Va.) and were maintained in growth media as recommended by the ATCC. The JeKo-1 and JVM-2 mantle cell lymphoma cell lines were purchased from the DSMZ (Brunswick, Germany) and were maintained in growth media as recommended by the vendor. The pediatric rhabdomyosarcoma Rh18 cell line was provided y Dr. P. Houghton (Ohio State University—Nationwide Children's Hospital, Columbus, Ohio) and were maintained in growth media as recommended by Dr. Houghton. All cell culture media were supplemented with L-glutamine and penicillin/streptomycin. All cells were grown under standard culture conditions in CO2 incubators, at 37° C., with 5% CO2, and 100% relative humidity.
# (§2) Cell viabilities were determined by measuring the cleavage of (sodium 3′-[1-(phenylaminocarbonyl)-3,4-tetrazolium]-bis(4-methoxy-6-nitro)benzene sulfonic acid hydrate) (XTT) to a water-soluble orange formazan by mitochondrial dehydrogenase, following the manufacturer's instructions (Roche Applied Science, Indianapolis, Ind.). Briefly, cell lines were seeded at various cell densities depending on the cell type. The adherent cell lines were allowed to adhere overnight before compound addition, whereas the suspension cell lines were seeded the day of compound addition. Stock concentrations of the compounds were made in DMSO, diluted in culture media and subsequently added to the plates at various final concentrations, then incubated for 72 hours. After the incubation period, the XTT labeling reagent, containing the electron-coupling reagent, was added to each well and incubated for 4 hours. The absorbance of each well was then read at 490 nm with a reference wavelength of 690 nm using a VersaMax™ microplate reader (Sunnyvale, Calif.). Data are expressed as the percentage of growth compared to vehicle-treated cells, as calculated from absorbance and corrected for background absorbance.
# (§3) Alternatively, cell lines were seeded in 100 μL cell culture medium in 96-well plates. Depending on the cell proliferation rate, cells were seeded at 4,000 to 6,000 cells/well. Suspension cell cultures were initiated with 20,000 cells/well. The cells were incubated overnight at 37° C., and then the drug treatments were started by adding 50 μL medium containing the corresponding drug dilution and DMSO. The final concentration of DMSO onto the cells was 0.5% v/v in all wells. The cells viability was determined using the CellTiter-Glo Luminescent Cell Viability Assay (Promega, Madison, Wis.). The CellTiter-Glo reagent was prepared according to the manufacturer's instructions, and then 50 μL reagent was added to each well for 1 h at rt. The luminescence was measured on an Envision Multilabel Plate Reader (PerkinElmer, Waltham, Mass.). The IC50 values were calculated from the dose-response curve analysis with GraphPad Prism 6.01 (GraphPad Software, La Jolla, Calif.) using the nonlinear regression model 4 Parameter Logistic. Nine concentrations were generated by 1:2 serial dilutions for each IC50 assay. Each drug concentration was evaluated in triplicate or quadruplicate.
# [2] = test system: PC3; test: In vitro cytotoxicity analysis, PC3; type: cell-based; conditions: Homo sapiens
# Excerpt: as §1, §2, §3
# [3] = test system: HeLa; test: Drug combination assay, HeLa; type: cell-based
# Protocol: (§4) Preliminary cytotoxic screenings for each drug used in drug combination assays were performed to determine their cytotoxic dose range. […] Eight concentrations were established by 1:3 serial dilutions of the single drugs and their combinations with the splicing modulators. All drug concentrations were evaluated in triplicate in 96-well cell culture plates. Assays of individual drugs and drug combinations were run on the same tissue culture plate. Cell viability was determined using the CellTiter-Glo reagent. Drug interactions, in terms of synergism, additive effect, or antagonism, were based on the drugs' Combination Index (CI) (Chou et al., Adv. Enzyme Regul. 1984, 22, 27).
# (§5) Luminescence data obtained from the cell viability determinations were formatted per the requirements of the analytical software (viability data range: >0 and <1). The formatted data were analyzed with the software CalcuSyn 2.1 (Biosoft, Cambridge, UK), which provides quantitative CI values for the drug interaction analyses (see ranges in Supplementary Table S2). […] Therefore, in these two cases the drug interaction was evaluated by comparing the IC50 value of Sudemycin with that of the IC50 values resulting from the serial dilutions of the splicing modulator combined with a constant dose of the non-toxic drug.
# [4] = test system: SK-MEL-2; test: Drug combination assay, SK-MEL-2; type: cell-based; conditions: for Interaction Type: listed drug combined with compound 19, Ineffective = drug IC50 much higher than 1 μM
# Protocol: as §4, with “reagent.” for “reagent. Drug interactions, in terms of synergism, additive effect, or antagonism, were based on the drugs' Combination Index (CI) (Chou et al., Adv. Enzyme Regul. 1984, 22, 27).”
# (§6) Luminescence data obtained from the cell viability determinations were formatted per the requirements of the analytical software (viability data range: >0 and <1). The formatted data were analyzed with the software CalcuSyn 2.1 (Biosoft, Cambridge, UK), which provides quantitative CI values for the drug interaction analyses (see ranges in Supplementary Table S2).
# [5] = test system: cell lines investigated; test: Drug combination assays, cell line not stated; type: cell-based
# Protocol: as §4, with “reagent.” for “reagent. Drug interactions, in terms of synergism, additive effect, or antagonism, were based on the drugs' Combination Index (CI) (Chou et al., Adv. Enzyme Regul. 1984, 22, 27).”
# as §6
# [6] = test system: WiDr; test: Drug combination assay, WiDr; type: cell-based; conditions: inhibitor + compound 19
# Protocol: as §4, §5
# [7] = test system: Sk-N-AS; test: Drug combination assay, Sk-N-AS neuroblastoma; type: cell-based; conditions: Sk-N-AS; inhibitor + compound 19
# Protocol: as §4, with “reagent.” for “reagent. Drug interactions, in terms of synergism, additive effect, or antagonism, were based on the drugs' Combination Index (CI) (Chou et al., Adv. Enzyme Regul. 1984, 22, 27).”
# as §6
# [8] = test system: PC-3; test: Drug combination assay, PC-3; type: cell-based; conditions: inhibitor + compound 19
# Protocol: as §4, §5
# [9] = Solubility in phosphate buffered saline (HPLC); type: physicochemical
# [10] = Mouse plasma stability (HPLC); type: in vitro ADME; conditions: mouse plasma at 37° C.
# [11] = test system: MDM2 alternative splicing in Rh18 cells; test: In vitro alternative splicing assay (MDM2, RT-PCR); type: cell-based; conditions: for MDM2 Splicing Effects: Rh18 cells, 8 h exposure, Table II
# Protocol: Briefly, following an 8 h exposure of exponentially growing cells to drug, total RNA was isolated using TRIzol reagent (Invitrogen, Carlsbad, Calif.). Total RNA (1 μg) was used to convert the mRNA to cDNA by using random primers, Oligo(dT)16 and Omniscript Reverse Transcription Kit (Qiagen, Germantown, Md.). PCR analyses were performed using specific oligonucleotides (see Table I) and standard amplification protocols. PCR products were separated by agarose gel electrophoresis, visualized by ethidium bromide staining on an UV transilluminator, and recorded. PCR band sizes were calculated by comparing them to the standard EZ Load 100-bp PCR Molecular Ruler (BioRad Laboratories, Hercules, Calif.).
# [12] = test system: cytotoxicity or splicing modulation; test: Rapid onset of cytotoxicity or splicing modulation; type: cell-based; conditions: maximum cytotoxicity or splicing modulation within 5 hours of drug treatment
# Protocol: The cell were seeded in of 100 μl of medium into 96-well plates (HeLa at 4×10^4 cell/well; SK_MEL_2 at 6×10^4 cell/well), they were allowed to attach overnight, and then treatments started by adding 50 μl of medium containing Sudemycin D6 to produce a final concentration of 1 μM and DMSO to 0.5% v/v final into the experimental well. Continuous drug treatments were run in the same plate, using concentrations of 0, 62.5, 125, 250, 500 & 1000 nM final. DMSO was added into all wells, including non-treated wells to 0.5% v/v final concentration. For wells where the drug was withdrawn, the medium was carefully aspirated after 1, 2, 3 and 4 hours after the addition of the drug, the cells were washed once with PBS and then 150 μl of fresh cell culture medium containing 0.5% v/v DMSO was added into all washed out wells. After 72 hours of the addition of drug, the cell viability was determined using CellTiter-Glo luminescent cell viability assay (Promega, Madison, Wis.), and Sudemycin D6 cytotoxicity was calculated as the percentage of cell proliferation inhibition against the control treatment DMSO.
# [13] = test system: c-kit positive bone marrow cells transduced with GFP, WT-U2AF1 or MUT-U2AF1 (S34F); test: GFP expression and apoptosis in U2AF1 transduced cells; type: cell-based, C57BL/6 mice
# Protocol: Bone marrow was collected from C57BL/6 mice and pooled together in a single solution, and then c-kit positive cells were selected. The c-kit positive cells were cultured with media enriched with stem cell factor (SCF), Flt-3, IL3, and thromboprotein (TPO), and other cytokines. Murine stem cell virus (MSCV) was used to transduce these cells with one of three constructs as indicated in the figure: GFP (control), U2AF1-IRES-GFP (indicated as WT-U2AF1 in the figure), or U2AF1^S34F-IRES-GFP (indicated as MUT-U2AF1 in the figure). The transduced cells carry a construct that expresses GFP and as indicated wild-type or mutant U2AF1. The control cells construct expresses only GFP. […] The assay data are expressed as the percentage of annexin V stained cells among the GFP positive cells. […] These cells show an increased tendency to apoptosis (i.e. increased expression of annexin V) in the GFP positive cells.
# [14] = test system: AML blast cells with wild-type or mutant S34F U2AF1, CD34+ cells; test: Replication by 5-ethynyl-2′-deoxyuridine incorporation; type: cell-based; conditions: concentration dependent; mutant vs wild-type U2AF1 AML blasts vs CD34+ cells
# Protocol: Replication was determined from incorporation of 5-ethynyl-2′-deoxyuridine using standard assay techniques.
# [15] = PC-3, Table III, read-out: PC3 IC50
structure (smiles),measurement,setting,value
CC(/C=C/[C@@H]1C[C@]2(CO2)CC(C)(C)O1)=C\C[C@H]1OC[C@@H](NC(=O)/C=C\[C@H](C)OC(N)=O)CO1,IC50,[1]; Table III,1.9 µM
same,IC50,[2]; [15],> 10 µM
CCN(CC)C(=O)O[C@@H](C)/C=C\C(=O)N[C@H]1CO[C@@H](C/C=C(C)/C=C/[C@@H]2C[C@]3(CO3)CC(C)(C)O2)OC1,IC50,[1]; Table III,> 1 µM
same,IC50,"[2]; PC-3, read-out: PC3 IC50",> 10 µM
C=CCN(/C=C1/C(=O)O[C@H](COC)[C@@]2(C)C1=C(O)C(=O)C1=C2[C@H](OC(C)=O)C[C@]2(C)C(=O)CC[C@@H]12)CC=C [PX-866],CI of 19 + inhibitor,"[3]; HeLa, inhibitor + compound 19",0.49
same,CI in SK-MEL-2 with compound 19,"[4]; Combination Index at ED50, CalcuSyn 2.1, listed drug + compound 19",0.57
same,CI of 19 + inhibitor,"[4]; SK-MEL-2, inhibitor + compound 19",0.57
same,Interaction Type,[4],Synergism (0.3-0.7)
same,drug interaction with compound 20,[5],demonstrated synergy
same,CI of 19 + inhibitor,[6],0.33
same,CI of 19 + inhibitor,[7],0.65
same,CI of 19 + inhibitor,[8],0.67
CCCCNC(=O)O[C@@H](C)/C=C\C(=O)N[C@H]1CO[C@@H](C/C=C(C)/C=C/[C@@H]2C[C@]3(CO3)CC(C)(C)O2)OC1,IC50,[1]; Table III,> 1 µM
same,IC50,[2]; [15],> 10 µM
CC(/C=C/[C@@H]1C[C@]2(CO2)CC(C)(C)O1)=C\C[C@H]1CC[C@@H](NC(=O)/C=C\[C@H](C)OC(=O)C(C)C)CC1,Buffer Soluble,[9],No
same,Plasma Stability,[10],No
same,IC50,[1]; Table II,0.047 µM
same,MDM2 Splicing Effects,[11],Yes
same,Rapid Onset,[12],Yes (“Yes” indicates maximum cytotoxicity or splicing modulation is seen within 5 hours of drug treatment.)
CNC(=O)O[C@@H](C)/C=C\C(=O)N[C@H]1CO[C@@H](C/C=C(C)/C=C/[C@@H]2C[C@]3(CO3)CC(C)(C)O2)OC1,IC50,[1]; Table III,0.9 µM
same,IC50,"[2]; PC-3, read-out: PC3 IC50",> 10 µM
O=C(O)CCCCCCCCCCCNC(=O)NC12CC3CC(CC(C3)C1)C2 [AUDA],cytotoxicity alone,"[3]; HeLa cells, 15 μM",not cytotoxic
same,Interaction Type,[4],Synergism (0.3-0.7)
same,drug interaction with compound 19 (panel of 23 drugs),[5],synergy
same,cytotoxic effect of drug alone,[5]; single drug in combination assays,Neither AUDA nor NCND alone produced a cytotoxic effect
CC(=O)O[C@@H](C)/C=C\C(=O)N[C@H]1CC[C@@H](C/C=C(C)/C=C/[C@@H]2C[C@]3(CO3)CC(C)(C)O2)CC1,Buffer Soluble,[9],No
same,Plasma Stability,[10],No
same,IC50,[1]; Table II,0.1 µM
same,MDM2 Splicing Effects,[11],Yes
same,Rapid Onset,[12],Yes (“Yes” indicates maximum cytotoxicity or splicing modulation is seen within 5 hours of drug treatment.)
"CC(/C=C/[C@@H]1C[C@]2(CO2)CC(C)(C)O1)=C\C[C@H]1CC[C@@H](NC(=O)/C=C\[C@H](C)OC(=O)N(C)C)CC1 [compound 19, (S,Z)-5-(((1R,4R)-4-((2E,4E)-5-((3R,5S)-7,7-Methyl-1,6-Dioxaspiro[2.5]Octan-5-Yl)-3-Methylpenta-2,4-Dien-1-Yl)Cyclohexyl)Amino)-5-Oxopent-3-En-2-Yl Dimethylcarbamate]",apoptosis (annexin V stained cells among GFP positive cells),[13]; 75 or 100 nM,cells expressing mutant U2AF1 the most sensitive
same,effect on expression of GFP from the splicing construct,"[13]; concentration dependent, GFP vs WT-U2AF1 vs MUT-U2AF1 cells",greater sensitivity realized in the mutant U2AF1 cells
same,synergy with PI3K/mTOR inhibition,[5]; all cell lines investigated,synergy is also seen
same,effect on replication,[14],cells expressing mutant U2AF1 are extremely sensitive
same,alternative MDM2 splicing,"[11]; Rh18, 8 h, PCR (FIG. 9)",induction of alternative MDM2 splicing
CC(/C=C/[C@@H]1C[C@]2(CO2)CC(C)(C)O1)=C\C[C@H]1OC[C@@H](NC(=O)/C=C\[C@H](C)OC(=O)C(C)C)CO1,solubility,"[9]; aqueous buffer, read-out: Buffer Soluble",> 10 µM
same,Plasma Stability,[10],No
same,IC50,[1]; Table II,0.22 µM
same,MDM2 Splicing Effects,[11],Yes
same,Rapid Onset,[12],No
COCCNC(=O)O[C@@H](C)/C=C\C(=O)N[C@H]1CO[C@@H](C/C=C(C)/C=C/[C@@H]2C[C@]3(CO3)CC(C)(C)O2)OC1,IC50,[1]; Table III,> 1 µM
same,IC50,[2]; [15],> 10 µM
